This is an account of results in patent publication US20260022142A1, “MACROCYCLIC IMMUNOMODULATORS” (Bristol-Myers Squibb Company, priority 2022, published 2026).

Broadly, the IC50 is the concentration that gives 50% inhibition.

Bridge positions count the residues as written; N and C are the ends. Square brackets hold non-standard residues; d marks the D form. Peptide text beside a SMILES is read from it. * marks the point of attachment. ξ: configuration not given here. Phe(4-COOH) = N[C@@H](Cc1ccc(C(=O)O)cc1)C(=O)O; Bip = N[C@@H](Cc1ccc(-c2ccccc2)cc1)C(=O)O; Morpholine(3S-CO) = O=C(O)[C@@H]1COCCN1; Phe(3-Me) = Cc1cccc(C[C@H](N)C(=O)O)c1; Phe(2-Me) = Cc1ccccc1C[C@H](N)C(=O)O; Val(3-OH) = CC(C)(O)[C@H](N)C(=O)O; 4Pal = N[C@@H](Cc1ccncc1)C(=O)O; Cha = N[C@@H](CC1CCCCC1)C(=O)O; Cit = NC(=O)NCCC[C@H](N)C(=O)O; Thr(3ξ) = CC(O)[C@H](N)C(=O)O; Carboxymethyl = O=C(O)C*; Orn = NCCC[C@H](N)C(=O)O; Aun = NCCCCCCCCCCC(=O)O; Dab = NCC[C@H](N)C(=O)O; Dap = NC[C@H](N)C(=O)O; AEEA = NCCOCCOCC(=O)O; ξC = NC(CS)C(=O)O

The target in this experiment is T1, PD-1/PD-L1 interaction (PE-labeled human PD-L1-Ig binding to Jurkat cell line over-expressing human PD-1) (Homo sapiens, UniProt Q15116).
T1 construct: expressed in transfected cells; host or cells: Jurkat
T1 sequence (Q15116 25-288): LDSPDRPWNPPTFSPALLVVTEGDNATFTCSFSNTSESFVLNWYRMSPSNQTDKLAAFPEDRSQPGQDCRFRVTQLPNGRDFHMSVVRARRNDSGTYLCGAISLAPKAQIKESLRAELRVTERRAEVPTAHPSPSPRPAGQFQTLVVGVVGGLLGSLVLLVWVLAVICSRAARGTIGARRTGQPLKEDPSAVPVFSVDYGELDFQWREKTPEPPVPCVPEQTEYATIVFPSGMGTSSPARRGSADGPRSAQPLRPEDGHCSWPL
The experiment can be described thus: Jurkat-PD-1 Cell Binding High-Content Screening Assay (CBA). In kind it is cell-based. The settings on record: Jurkat cell line over-expressing human PD-1; PE-labeled PD-L1-Ig 20 nM final; read-out: Jurkat hPD1-PDL1 IC50. Summed up:
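Read-out is high-content imaging of cell-bound phycoerythrin-tagged PD-L1-Ig on fixed, Hoechst-counterstained Jurkat cells that over-express human PD-1. Compound exposure lasts 2 h at 37° C before the labeled ligand (20 nM final) is added for a further hour.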
Take `Cc1cccc(C[C@@H]2NC(=O)[C@H](CC(=O)O)NC(=O)[C@H](Cc3ccc(OCC(=O)O)cc3)NC(=O)[C@H](CN)NC(=O)CSC[C@@H](C(=O)N[C@@H](CCN)C(=O)NCCOCCOCC(=O)NCCCCCCCCCCC(=O)O)NC(=O)[C@H](CCCN)NC(=O)[C@H](C(C)C)NC(=O)[C@H](CC3CCCCC3)NC(=O)[C@H](CCN)NC(=O)[C@@H](CC(C)C)NC(=O)[C@H](CCCN)NC(=O)[C@H](C(C)C)NC(=O)[C@H](Cc3ccc(-c4ccccc4)cc3)NC(=O)[C@H](C(C)C)NC2=O)c1` [Compound 2551] ({CH2CO}-[Dap]Y(Carboxymethyl)D[Phe(3-Me)]V[Bip]V[Orn][dL][Dab][Cha]V[Orn]C[Dab][AEEA][Aun]-OH; thioether N-14): the IC50 came out at 11.2 nM.
For the molecule `CC(C)C[C@H]1NC(=O)[C@H](CCCN)NC(=O)[C@H](C(C)C)NC(=O)[C@H](Cc2ccc(-c3ccccc3)cc2)NC(=O)[C@H](C(C)C)NC(=O)[C@H](Cc2c[nH]c3ccccc23)NC(=O)[C@H](CC(=O)O)NC(=O)[C@H](Cc2ccc(OCC(=O)O)cc2)NC(=O)[C@H](CN)NC(=O)CSC[C@@H](C(=O)N[C@@H](CC(=O)O)C(=O)NCCCCCCCCCCC(=O)O)NC(=O)[C@H]([C@@H](C)O)NC(=O)[C@H](C(C)C)NC(=O)[C@H](CC2CCCCC2)NC(=O)[C@H](Cc2c[nH]cn2)NC1=O` [Compound 1078] ({CH2CO}-[Dap]Y(Carboxymethyl)DWV[Bip]V[Orn][dL]H[Cha]VTCD[Aun]-OH; thioether N-14), the IC50 stood at 84.9 nM.
To `CC[C@H](C)[C@@H]1NC(=O)[C@H](Cc2ccc(-c3ccccc3)cc2)NC(=O)[C@H](C(C)C)NC(=O)[C@H](Cc2cccc(C)c2)NC(=O)[C@H](CC(=O)O)NC(=O)[C@H](Cc2ccc(OCC(=O)O)cc2)NC(=O)[C@H](CN)NC(=O)CSCC(C(=O)NCCOCCOCC(=O)NCCCCCCCCCCC(=O)O)NC(=O)[C@H](CCCN)NC(=O)[C@H](C(C)C)NC(=O)[C@H](CC2CCCCC2)NC(=O)[C@H](CCN)NC(=O)[C@@H](CC(C)C)NC(=O)[C@H](CCCN)NC1=O` (stereo partly drawn) [Compound 2648] ({CH2CO}-[Dap]Y(Carboxymethyl)D[Phe(3-Me)]V[Bip]I[Orn][dL][Dab][Cha]V[Orn][ξC][AEEA][Aun]-OH; thioether N-14) belongs 8.9 nM; to `Cc1cccc(C[C@@H]2NC(=O)[C@H](CC(=O)O)NC(=O)[C@H](Cc3ccc(OCC(=O)O)cc3)NC(=O)[C@H](CN)NC(=O)CSC[C@@H](C(=O)N[C@@H](CCN)C(=O)NCCOCCOCC(=O)NCCCCCCCCCCC(=O)O)NC(=O)[C@H](CCC(=O)O)NC(=O)[C@H](C(C)C)NC(=O)[C@H](Cc3ccccc3C)NC(=O)[C@H](CCN)NC(=O)[C@@H](CC(C)C)NC(=O)[C@H](CCCN)NC(=O)[C@H](Cc3ccc(OCC(=O)O)cc3)NC(=O)[C@H](Cc3ccc(-c4ccccc4)cc3)NC(=O)[C@H](Cc3ccc(C(=O)O)cc3)NC2=O)c1` [Compound 1274] ({CH2CO}-[Dap]Y(Carboxymethyl)D[Phe(3-Me)][Phe(4-COOH)][Bip]Y(Carboxymethyl)[Orn][dL][Dab][Phe(2-Me)]VEC[Dab][AEEA][Aun]-OH; thioether N-14), 9.8 nM.
To `Cc1cccc(C[C@@H]2NC(=O)[C@H](CC(=O)O)NC(=O)[C@H](Cc3ccc(OCC(=O)O)cc3)NC(=O)[C@H](CCCNC(=N)N)NC(=O)CSC[C@@H](C(=O)N[C@@H](CCN)C(=O)NCCCCCCCCCCC(=O)O)NC(=O)[C@H](C(C)O)NC(=O)[C@H](C(C)C)NC(=O)[C@H](CC3CCCCC3)NC(=O)[C@H](CCN)NC(=O)[C@@H](CC(C)C)NC(=O)[C@H](CCCN)NC(=O)[C@H](CCC(N)=O)NC(=O)[C@H](Cc3ccc(-c4ccccc4)cc3)NC(=O)[C@H](C(C)C)NC2=O)c1` (stereo partly drawn) [Compound 3355] ({CH2CO}-RY(Carboxymethyl)D[Phe(3-Me)]V[Bip]Q[Orn][dL][Dab][Cha]V[Thr(3ξ)]C[Dab][Aun]-OH; thioether N-14) belongs 8.1 nM.
Turning to `Cc1cccc(C[C@@H]2NC(=O)[C@H](CC(=O)O)NC(=O)[C@H](Cc3ccc(OCC(=O)O)cc3)NC(=O)[C@H](CCCNC(=N)N)NC(=O)CSC[C@@H](C(=O)N[C@@H](CCN)C(=O)NCCCCCCCCCCC(=O)O)NC(=O)[C@H](CC(=O)O)NC(=O)[C@H](C(C)(C)O)NC(=O)[C@H](CC3CCCCC3)NC(=O)[C@H](CCN)NC(=O)[C@@H](CC(C)C)NC(=O)[C@H](CCCN)NC(=O)[C@H](Cc3ccc(OCC(=O)O)cc3)NC(=O)[C@H](Cc3ccc(-c4ccccc4)cc3)NC(=O)[C@H](Cc3ccc(OCC(=O)O)cc3)NC2=O)c1` [Compound 2864] ({CH2CO}-RY(Carboxymethyl)D[Phe(3-Me)]Y(Carboxymethyl)[Bip]Y(Carboxymethyl)[Orn][dL][Dab][Cha][Val(3-OH)]DC[Dab][Aun]-OH; thioether N-14), the IC50 was found to be 3.3 nM.
To `Cc1cccc(C[C@@H]2NC(=O)[C@H](CC(=O)O)NC(=O)[C@H](Cc3ccc(OCC(=O)O)cc3)NC(=O)[C@H](CCN)NC(=O)CSC[C@@H](C(=O)N[C@@H](CCN)C(=O)NCCCCCCCCCCC(=O)O)NC(=O)[C@H](CCCN)NC(=O)[C@H](C(C)(C)O)NC(=O)[C@H](CC3CCCCC3)NC(=O)[C@H](CCN)NC(=O)[C@@H](CC(C)C)NC(=O)[C@H](CCCN)NC(=O)[C@H](Cc3ccc(OCC(=O)O)cc3)NC(=O)[C@H](Cc3ccc(-c4ccccc4)cc3)NC(=O)[C@H](Cc3ccc(OCC(=O)O)cc3)NC2=O)c1` [Compound 3634] ({CH2CO}-[Dab]Y(Carboxymethyl)D[Phe(3-Me)]Y(Carboxymethyl)[Bip]Y(Carboxymethyl)[Orn][dL][Dab][Cha][Val(3-OH)][Orn]C[Dab][Aun]-OH; thioether N-14) belongs 6.3 nM.
To `Cc1cccc(C[C@@H]2NC(=O)[C@H](CC(=O)O)NC(=O)[C@H](Cc3ccc(OCC(=O)O)cc3)NC(=O)[C@H](CN)NC(=O)CSC[C@@H](C(=O)N[C@@H](C)C(=O)N[C@@H](CCCN)C(=O)NCC(=O)NCCCCCCCCCCC(=O)O)NC(=O)[C@H]([C@@H](C)O)NC(=O)[C@H](C(C)C)NC(=O)[C@H](CC3CCCCC3)NC(=O)[C@H](CCN)NC(=O)[C@@H](CC(C)C)NC(=O)[C@H](CCCN)NC(=O)[C@H](CCCNC(N)=O)NC(=O)[C@H](Cc3ccc(-c4ccccc4)cc3)NC(=O)[C@H](C(C)C)NC2=O)c1` [Compound 1068] ({CH2CO}-[Dap]Y(Carboxymethyl)D[Phe(3-Me)]V[Bip][Cit][Orn][dL][Dab][Cha]VTCA[Orn]G[Aun]-OH; thioether N-14) belongs 10.4 nM.
To `CC(C)C[C@H]1NC(=O)[C@H](CCCN)NC(=O)[C@H](C(C)C)NC(=O)[C@H](Cc2ccc(-c3ccccc3)cc2)NC(=O)[C@H](C(C)C)NC(=O)[C@H](Cc2c[nH]c3ccccc23)NC(=O)[C@H](CC(=O)O)NC(=O)[C@H](Cc2ccc(C(=O)O)cc2)NC(=O)[C@H](Cc2ccc(OCC(=O)O)cc2)NC(=O)CSC[C@@H](C(=O)N[C@@H](CCCCN)C(=O)NCCOCCOCC(=O)NCCCCCCCCCCC(=O)O)NC(=O)[C@H](CCCCN)NC(=O)[C@H](C(C)C)NC(=O)[C@H](CC2CCCCC2)NC(=O)[C@H](CCN)NC1=O` [Compound 2523] ({CH2CO}-Y(Carboxymethyl)[Phe(4-COOH)]DWV[Bip]V[Orn][dL][Dab][Cha]VKCK[AEEA][Aun]-OH; thioether N-14) belongs 7.6 nM.
For the molecule `Cc1cccc(C[C@@H]2NC(=O)[C@H](CC(=O)O)NC(=O)[C@H](Cc3ccc(OCC(=O)O)cc3)NC(=O)[C@H](CN)NC(=O)CSC[C@@H](C(=O)N[C@@H](CC(=O)O)C(=O)NCCOCCOCC(=O)NCCCCCCCCCCC(=O)O)NC(=O)[C@H](CCCN)NC(=O)[C@H](C(C)C)NC(=O)[C@H](CC3CCCCC3)NC(=O)[C@H](CCN)NC(=O)[C@@H](CC(C)C)NC(=O)[C@H](CCCN)NC(=O)[C@H](CCCNC(N)=O)NC(=O)[C@H](Cc3ccc(-c4ccccc4)cc3)NC(=O)[C@H](C(C)C)NC2=O)c1` [Compound 2020] ({CH2CO}-[Dap]Y(Carboxymethyl)D[Phe(3-Me)]V[Bip][Cit][Orn][dL][Dab][Cha]V[Orn]CD[AEEA][Aun]-OH; thioether N-14), the half-maximal inhibitory concentration (IC50) was found to be 10.5 nM.
For `Cc1cccc(C[C@@H]2NC(=O)[C@H](CC(=O)O)NC(=O)[C@H](Cc3ccncc3)NC(=O)[C@H](Cc3ccc(OCC(=O)O)cc3)NC(=O)CSC[C@@H](C(=O)N[C@@H](CCN)C(=O)NCCCCCCCCCCC(=O)O)NC(=O)[C@H]([C@@H](C)O)NC(=O)[C@H](C(C)C)NC(=O)[C@H](CC3CCCCC3)NC(=O)[C@H](CCN)NC(=O)[C@@H](CC(C)C)NC(=O)[C@H](CCCN)NC(=O)[C@H](C(C)C)NC(=O)[C@H](Cc3ccc(-c4ccccc4)cc3)NC(=O)[C@H](C(C)C)NC2=O)c1` [Compound 1164] ({CH2CO}-Y(Carboxymethyl)[4Pal]D[Phe(3-Me)]V[Bip]V[Orn][dL][Dab][Cha]VTC[Dab][Aun]-OH; thioether N-14), the half-inhibitory concentration (IC50) is 122 nM.
To `CC(C)C[C@@H]1NC(=O)[C@H](Cc2c[nH]c3ccccc23)NC(=O)[C@H](CC(=O)O)NC(=O)[C@H](Cc2ccncc2)NC(=O)[C@H](Cc2ccc(OCC(=O)O)cc2)NC(=O)CSC[C@@H](C(=O)N2CCOC[C@H]2C(=O)NCCCCCCCCCCC(=O)O)NC(=O)[C@H](CCCNC(N)=O)NC(=O)[C@H](C(C)C)NC(=O)[C@H](CC2CCCCC2)NC(=O)[C@H](CCN)NC(=O)[C@@H](CC(C)C)NC(=O)[C@H](CCCN)NC(=O)[C@H](C(C)C)NC(=O)[C@H](Cc2ccc(-c3ccccc3)cc2)NC1=O` [Compound 1227] ({CH2CO}-Y(Carboxymethyl)[4Pal]DWL[Bip]V[Orn][dL][Dab][Cha]V[Cit]C[Morpholine(3S-CO)][Aun]-OH; thioether N-14) belongs 304 nM; to `Cc1cccc(C[C@@H]2NC(=O)[C@H](CC(=O)O)NC(=O)[C@H](Cc3ccc(OCC(=O)O)cc3)NC(=O)[C@H](CCCNC(=N)N)NC(=O)CSC[C@@H](C(=O)N[C@@H](CCN)C(=O)NCCCCCCCCCCC(=O)O)NC(=O)[C@H](CCC(N)=O)NC(=O)[C@H](CO)NC(=O)[C@H](CC3CCCCC3)NC(=O)[C@H](CCN)NC(=O)[C@@H](CC(C)C)NC(=O)[C@H](CCCN)NC(=O)[C@H](Cc3ccc(OCC(=O)O)cc3)NC(=O)[C@H](Cc3ccc(-c4ccccc4)cc3)NC(=O)[C@H](Cc3ccc(OCC(=O)O)cc3)NC2=O)c1` [Compound 3516] ({CH2CO}-RY(Carboxymethyl)D[Phe(3-Me)]Y(Carboxymethyl)[Bip]Y(Carboxymethyl)[Orn][dL][Dab][Cha]SQC[Dab][Aun]-OH; thioether N-14), 10.3 nM.
